The values that follow come from patent US20060154346A1, “Microorganism producing 5'xanthylic acid” (priority 2002, published 2006).

The subject of assay [1] is Corynebacterium ammoniagenes KCCM 10340. The assay is described as follows: Growth of the strain in medium with added oligomycin (resistance test). Conditions: 30° C. for 5 days. Also noted: key: +: growth; −: no growth. It counts as cell-based. The source says: (§1) The invention relates to Corynebacterium ammoniagenes CJXOL 0201 (KCCM-10447) which is a mutant strain of Corynebacterium ammoniagenes KCCM 10340, producing 5′-xanthylic acid. The CJXOL 0201 is obtained by treating Corynebacterium ammoniagenes KCCM 10340 with UV radiation and mutation derivatives such as N-methy-N′-nitro-n-nitrosoguanidine(NTG) according to ordinary procedure, and selecting a mutant strain among these which can grow in the culture medium (glucose 20 g/L, potassium phosphate monobasic 1 g/L, potassium phosphate dibasic 1 g/L, urea 2 g/L, ammonium sulfate 3 g/L, magnesium sulfate 1 g/L, calcium chloride 100 mg/L, ferrous sulfate 20 mg/L, manganese sulfate 10 mg/L, zinc sulfate 10 mg/L, biotin 30 μg/L, thiamine hydrochloride 0.1 mg/L, copper sulfate 0.8 mg/L, adenine 20 mg/L, guanine 20 mg/L, pH 7.2) which different concentration levels of oligomycin (1,2,5,10,20,50 mg/L) is added into. […] 21, 2002 with accession Number KCCM 10447.
(§2) According to the Table 1, the microorganism of the invention can grow in the medium which 10 mg/L oligomycin was added into. The medium was: fermented at 30° C. for 5 days.

Assay [2] deals with Corynebacterium ammoniagenes CJXOL 0201. The description is as above. It counts as cell-based. Also on record: key to growth of strain: +: growth; −: no growth.
Description: as §1, §2

In the case of `CC[C@H]1/C=C/C=C/C[C@@H](C)[C@H](O)[C@@](C)(O)C(=O)[C@@H](C)[C@H](O)[C@@H](C)C(=O)[C@@H](C)[C@H](O)[C@@H](C)/C=C/C(=O)O[C@@H]2[C@H](C)[C@H](CC1)O[C@]1(CC[C@H](C)[C@H](C[C@@H](C)O)O1)[C@H]2C` [Oligomycin, oligomycin], the growth of strain entry was “+” in assay [1] (oligomycin 10 mg/L); “−” in assay [1] (oligomycin 20 mg/L); “−” in assay [1] (oligomycin 30 mg/L); “−” in assay [1] (oligomycin 40 mg/L); “−” in assay [1] (oligomycin 50 mg/L); “+” in assay [2] (oligomycin 30 mg/L, 30° C. for 5 days). Moreover, the growth of strain result in assay [2] (oligomycin 40 mg/L, 30° C. for 5 days) was “−”; in assay [2] (oligomycin 50 mg/L, 30° C. for 5 days), “−”. In addition, the “oligomycin concentration up to which resistance (growth) was shown; no growth above” value in assay [2] (0˜50 mg/L oligomycin added into selection medium) is “up to 20 mg/L”. Besides, the “growth in medium with oligomycin” value in assay [2] (oligomycin 10 mg/L, 30° C. for 5 days) is recorded as “can grow”.
